Assay results as given in patent publication US4920103A, “Modifications of mycinose and 3-O-demethylmycinose in tylosin-type macrolides” (Eli Lilly and Company, priority 1986, dated 1990).
≈ marks a conversion by molar mass, not a printed value. Like-named read-outs stand apart in the source and are kept apart here.

Assays:
[1] = test system: Staphylococcus aureus; assay: MIC, broth-dilution microtiter test, S. aureus; format: cell-based
Method: (§1) The MIC's in Table II were determined by standard agar-dilution assays. The MIC's in Table III were obtained using conventional broth-dilution microtiter tests.

[2] = test system: Pasteurella hemolytica 23C; assay: MIC, broth-dilution microtiter test, P. hemolytica 23C; format: cell-based
Method: as §1

[3] = test system: Pasteurella multocida 40G; assay: MIC, broth-dilution microtiter test, P. multocida 40G; format: cell-based
Method: as §1

[4] = test system: Pasteurella hemolytica 41D; assay: MIC, broth-dilution microtiter test, P. hemolytica 41D; format: cell-based
Method: as §1

[5] = test system: Staphylococcus epidermidis EPI1; assay: MIC, standard agar-dilution assay, S. epidermidis EPI1; format: cell-based
Method: as §1

[6] = test system: Pasteurella multocida 60A; assay: MIC, broth-dilution microtiter test, P. multocida 60A; format: cell-based
Method: as §1

[7] = test system: Streptococcus Group D 2041; assay: MIC, standard agar-dilution assay, Streptococcus Group D 2041; format: cell-based; settings: GROUPD2041
Method: as §1

[8] = test system: Streptococcus pneumoniae Park I; assay: MIC, standard agar-dilution assay, S. pneumoniae Park I; format: cell-based; settings: Streptococcus pneumoniae
Method: as §1

[9] = test system: Streptococcus Group D X66; assay: MIC, standard agar-dilution assay, Streptococcus Group D X66; format: cell-based
Method: as §1

[10] = test system: Pasteurella multocida 68C; assay: MIC, broth-dilution microtiter test, P. multocida 68C; format: cell-based
Method: as §1

[11] = test system: Pasteurella multocida 17E; assay: MIC, broth-dilution microtiter test, P. multocida 17E; format: cell-based; settings: Pasteurella multocida, 17E
Method: as §1

[12] = test system: Pseudomonas aeruginosa X239; assay: MIC, standard agar-dilution assay, P. aeruginosa X239; format: cell-based
Method: as §1

[13] = test system: Mycoplasma gallisepticum 36H; assay: MIC, broth-dilution microtiter test, M. gallisepticum 36H; format: cell-based; settings: Mycoplasmoides gallisepticum
Method: as §1

[14] = test system: Bordetella bronchiseptica; assay: MIC, broth-dilution microtiter test, B. bronchiseptica; format: cell-based
Method: as §1

[15] = test system: Streptococcus pyogenes C203; assay: Protection of mice experimentally infected with Streptococcus pyogenes C203; format: in vivo; settings: Streptococcus pyogenes, doses given 1 and 4 hours postinfection, read-out: ED50
Method: The formula 1 compounds have shown in vivo antimicrobial activity against experimentally-induced infections in laboratory animals. When two doses of test compound were administered to mice experimentally infected with Streptococcus pyogenes C203, the activity observed was measured as an ED50 value [effective dose in mg/kg to protect 50% of the test animals: see Warren Wick, et al., J. Bacteriol. 81, 233-235 (1961)].
^a mg/kg × 2; doses given 1 and 4 hours postinfection

[16] = test system: Pasteurella multocida 22A; assay: MIC, broth-dilution microtiter test, P. multocida 22A; format: cell-based
Method: as §1

[17] = test system: Staphylococcus aureus X1.1; assay: MIC, standard agar-dilution assay, S. aureus X1.1; format: cell-based
Method: as §1

[18] = test system: Streptococcus pyogenes C203; assay: MIC, standard agar-dilution assay, S. pyogenes C203; format: cell-based; settings: Streptococcus pyogenes, C203
Method: as §1

[19] = test system: Pasteurella hemolytica 22C; assay: MIC, broth-dilution microtiter test, P. hemolytica 22C; format: cell-based
Method: as §1

[20] = test system: Klebsiella pneumoniae X68; assay: MIC, standard agar-dilution assay, K. pneumoniae X68; format: cell-based
Method: as §1

[21] = test system: Staphylococcus aureus V41; assay: MIC, standard agar-dilution assay, S. aureus V41; format: cell-based; settings: Staphylococcus aureus, V41
Method: as §1

[22] = test system: Staphylococcus epidermidis 222; assay: MIC, standard agar-dilution assay, S. epidermidis 222; format: cell-based
Method: as §1

[23] = test system: Haemophilus influenzae C.L.; assay: MIC, standard agar-dilution assay, H. influenzae C.L.; format: cell-based
Method: as §1

[24] = test system: Mycoplasma hyopneumoniae S5972; assay: MIC, broth-dilution microtiter test, M. hyopneumoniae S5972; format: cell-based; settings: Mesomycoplasma hyopneumoniae, S5972; broth-dilution microtiter; read-out: MIC
Method: as §1

[25] = test system: Staphylococcus aureus X400; assay: MIC, standard agar-dilution assay, S. aureus X400; format: cell-based
Method: as §1

[26] = test system: Streptococcus sp. 19F; assay: MIC, broth-dilution microtiter test, Streptococcus sp. 19F; format: cell-based; settings: Streptococcus, SP.19F
Method: as §1

[27] = test system: Mycoplasma gallisepticum 15E; assay: MIC, broth-dilution microtiter test, M. gallisepticum 15E; format: cell-based; settings: Mycoplasmoides gallisepticum, broth-dilution microtiter, read-out: MIC
Method: as §1

[28] = test system: Haemophilus influenzae 76; assay: MIC, standard agar-dilution assay, H. influenzae 76; format: cell-based
Method: as §1

[29] = test system: Mycoplasma gallisepticum 29C; assay: MIC, broth-dilution microtiter test, M. gallisepticum 29C; format: cell-based; settings: Mycoplasmoides gallisepticum
Method: as §1

[30] = test system: Staphylococcus aureus S13E; assay: MIC, standard agar-dilution assay, S. aureus S13E; format: cell-based
Method: as §1

[31] = test system: Escherichia coli EC14; assay: MIC, standard agar-dilution assay, E. coli EC14; format: cell-based
Method: as §1

[32] = test system: Mycoplasma hyorhinis 29E; assay: MIC, broth-dilution microtiter test, M. hyorhinis 29E; format: cell-based; settings: Mycoplasma, 29E; broth-dilution microtiter; read-out: MIC
Method: as §1

[33] = test system: Mycoplasma synoviae 40A; assay: MIC, broth-dilution microtiter test, M. synoviae 40A; format: cell-based; settings: Mycoplasmopsis synoviae, 40A
Method: as §1

[34] = broth-dilution microtiter, read-out: MIC
[35] = broth-dilution microtiter, avian isolate, read-out: MIC

| SMILES | MIC [1] [µg/mL] | MIC [2, 34] [µg/mL] | MIC [4, 34] [µg/mL] | MIC [5] [µg/mL] | MIC [6, 35] [µg/mL] | MIC [9] [µg/mL] | MIC ([12]; agar-dilution, read-out: MIC) [µg/mL] | MIC [13, 34] [µg/mL] | MIC [14, 34] [µg/mL] | ED50 ([15]; C203, oral) [mg/kg] | ED50 ([15]; C203, sc, subcutaneous) [mg/kg] | MIC [16, 34] [µg/mL] | MIC [17] [µg/mL] | MIC [18] [µg/mL] | MIC [19, 34] [µg/mL] | MIC [21] [µg/mL] | MIC [22] [µg/mL] | MIC [24] [µg/mL] | MIC [25] [µg/mL] | MIC [30] [µg/mL] | further results |
| --- | --- | --- | --- | --- | --- | --- | --- | --- | --- | --- | --- | --- | --- | --- | --- | --- | --- | --- | --- | --- | --- |
| CCC1OC(=O)CC(O)C(C)C(OC2OC(C)C(O)C(N(C)C)C2O)C(CCOc2ccccc2)CC(C)C(=O)C=CC(C)=CC1COC1OC(C)C(N)C(OC)C1OC (centres unmarked) [Compound 21, 4"-Amino-4"-deoxy-20-DH-20-O-phenyl-desmycosin] | 0.39 (≈ 0.459 µM) | 25 (≈ 29.4 µM) | 12.5 (≈ 14.7 µM) | 0.5 (≈ 0.589 µM) | 12.5 (≈ 14.7 µM) | 4 (≈ 4.71 µM) | > 128 | > 50 | > 50 | 57.4 | > 10 | 12.5 (≈ 14.7 µM) | 0.25 (≈ 0.294 µM) | 0.5 (≈ 0.589 µM) | 25 (≈ 29.4 µM) | 0.5 (≈ 0.589 µM) | 0.25 (≈ 0.294 µM) | 50 (≈ 58.9 µM) | 0.25 (≈ 0.294 µM) | 0.25 (≈ 0.294 µM) | MIC [3, 34]: 6.25 µg/mL (≈ 7.36 µM); MIC ([7]; agar-dilution, read-out: MIC): 8 µg/mL (≈ 9.42 µM); MIC ([8]; agar-dilution, read-out: MIC): 1 µg/mL (≈ 1.18 µM); MIC [10, 34]: 12.5 µg/mL (≈ 14.7 µM); MIC ([11]; broth-dilution microtiter, bovine isolate, read-out: MIC): 25 µg/mL (≈ 29.4 µM); MIC ([20]; agar-dilution, read-out: MIC): > 128 µg/mL; MIC [23]: 32 µg/mL (≈ 37.7 µM); MIC [26, 34]: 3.12 µg/mL (≈ 3.67 µM); MIC [27]: > 50 µg/mL; MIC [28]: 16 µg/mL (≈ 18.8 µM); MIC [29, 34]: 1.56 µg/mL (≈ 1.84 µM); MIC ([31]; agar-dilution, read-out: MIC): > 128 µg/mL |
| CCC1OC(=O)CC(O)C(C)C(OC2OC(C)C(O)C(N(C)C)C2O)C(CCOc2ccccc2)CC(C)C(=O)C=CC(C)=CC1COC1OC(C)C(=NO)C(OC)C1OC (centres unmarked) [Compound 4, 4"-O-Hydroxyimino-20-DH-20-O-phenyl-desmycosin] | 1.56 (≈ 1.81 µM) | > 50 | > 50 | 1 (≈ 1.16 µM) | > 50 | 2 (≈ 2.32 µM) | > 128 | – | > 50 | 39.6 | > 10 | > 50 | 0.5 (≈ 0.579 µM) | 2 (≈ 2.32 µM) | > 50 | 1 (≈ 1.16 µM) | 0.5 (≈ 0.579 µM) | > 50 | 1 (≈ 1.16 µM) | 1 (≈ 1.16 µM) | MIC [3]: 50 µg/mL (≈ 57.9 µM); MIC [7]: 4 µg/mL (≈ 4.63 µM); MIC [8]: 2 µg/mL (≈ 2.32 µM); MIC [10]: 50 µg/mL (≈ 57.9 µM); MIC [11]: 50 µg/mL (≈ 57.9 µM); MIC [13]: 50 µg/mL (≈ 57.9 µM); MIC ([20]; agar-dilution, read-out: MIC): > 128 µg/mL; MIC ([23]; agar-dilution, ampicillin-sensitive strain, read-out: MIC): > 128 µg/mL; MIC [26]: 0.78 µg/mL (≈ 0.904 µM); MIC [27]: 25 µg/mL (≈ 29 µM); MIC ([28]; agar-dilution, ampicillin-resistant strain, read-out: MIC): > 128 µg/mL; MIC [29]: 1.56 µg/mL (≈ 1.81 µM); MIC ([31]; agar-dilution, read-out: MIC): > 128 µg/mL |
| CCC1OC(=O)CC(O)C(C)C(OC2OC(C)C(OC(C)=O)C(N(C)C)C2OC(C)=O)C(CCOc2ccccc2)CC(C)C(=O)C=CC(C)=CC1COC1OC(C)CC(OC)C1OC (centres unmarked) [Compound 10, 2',4'-Di-O-acetyl-4"-deoxy-20-DH-20-O-phenyl-desmycosin] | 0.78 (≈ 0.85 µM) | – | – | 0.25 (≈ 0.272 µM) | – | 2 (≈ 2.18 µM) | – | 25 (≈ 27.2 µM) | – | – | – | – | 0.25 (≈ 0.272 µM) | 0.5 (≈ 0.545 µM) | – | 0.5 (≈ 0.545 µM) | 0.25 (≈ 0.272 µM) | 6.25 (≈ 6.81 µM) | 0.5 (≈ 0.545 µM) | 0.5 (≈ 0.545 µM) | MIC [2]: 50 µg/mL (≈ 54.5 µM); MIC [3]: > 50 µg/mL; MIC [4]: 50 µg/mL (≈ 54.5 µM); MIC [6]: > 50 µg/mL; MIC [32]: 25 µg/mL (≈ 27.2 µM); MIC [7]: 4 µg/mL (≈ 4.36 µM); MIC [8]: 0.5 µg/mL (≈ 0.545 µM); MIC [10]: 50 µg/mL (≈ 54.5 µM); MIC [11]: 50 µg/mL (≈ 54.5 µM); MIC [12]: > 128 µg/mL; MIC [14]: > 50 µg/mL; MIC [33]: 3.12 µg/mL (≈ 3.4 µM); MIC [16]: > 50 µg/mL; MIC [19]: > 50 µg/mL; MIC [20]: > 128 µg/mL; MIC [23]: 64 µg/mL (≈ 69.7 µM); MIC [26, 34]: 6.25 µg/mL (≈ 6.81 µM); MIC [28]: 64 µg/mL (≈ 69.7 µM); MIC [29, 34]: < 0.048 µg/mL; MIC [31]: > 128 µg/mL |
